In this experiment the target is human 11β-HSD1 microsome fraction (Homo sapiens, UniProt P28845). Kind of experiment: Enzymatic 11beta-HSD1 test (SPA-based detection). The experiment is classed as biochemical. Conditions: human 11β-HSD1 microsomes, [1,2-3H]-cortisone, NADPH, 37° C., 1 hour; read-out: IC50 (nM), Biological activity in nanomolar. The protocol:
Enzymatic 11beta-HSD1 test:
First of all, 20 μl of the human 11β-HSD1 microsome fraction (0.2 μg of protein), prepared in 50 mM HEPES, 0.1% BSA (w/v), were applied to a plate with 384 wells. The test compounds (0.09 μl) were applied to the assay plate in 100% DMSO. The reaction was started by addition of 20 μl of [1,2-^3H]-cortisone (0.1 μCi/[…]) in assay buffer comprising 25 mM HEPES, 100 mM KCl, 5 mM NaCl, 2 mM MgCl2 and 0.25 mM NADPH. The plate was agitated at 37° C. for 1 hour. At the same time, a stop solution comprising 20 mg/ml SPA-PVT beads, 1.6 mg/ml monoclonal cortisol antibody and 0.01 mM SSR110887 (inhibitor from the Biovitrium patent) in 50 mM HEPES, 1 M NaCl and 1 M KCl was stirred at room temperature. To stop the reaction, 25 μl of the stop solution were added to each well. The plate was agitated gently at room temperature for 1 further hour and then centrifuged at 500 gav for […], in order that the SPA beads could settle out. […] The comparative compound was glycyrrhetinic acid.
Protein and radioactive substrate were dispensed with a Biomek FX unit (Beckman Coulter) for handling liquids. The test compounds were added with a Cybi-Well equipped with a 90 nl pin tool (CyBio).
Lit.: Solly S, Mundt S S, Zokian H J, Juy-Fang Ding G, Hermanowski-Vosatka A, Strulovici B and Zheng W. High-throughput screening of 11β-Hydroxysteroid dehydrogenase type 1 in scintillation proximity format.
Sequence of human 11β-HSD1 microsome fraction (P28845 whole entry): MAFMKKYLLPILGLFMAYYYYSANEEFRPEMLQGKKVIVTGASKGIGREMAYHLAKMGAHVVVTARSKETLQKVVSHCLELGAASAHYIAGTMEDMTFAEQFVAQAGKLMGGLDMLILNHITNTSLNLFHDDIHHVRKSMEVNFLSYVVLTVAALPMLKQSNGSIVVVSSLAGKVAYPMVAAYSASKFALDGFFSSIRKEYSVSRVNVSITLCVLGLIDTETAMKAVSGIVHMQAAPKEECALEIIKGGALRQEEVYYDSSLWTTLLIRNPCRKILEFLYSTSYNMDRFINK
By IC50 is commonly meant the concentration needed to halve the response being measured. Turning to `CC1(C)[C@@H]2CC[C@@]1(C)[C@H](NC1=NS(=O)(=O)C3CCCCC3O1)C2` (single isomer, unassigned) [Example 9], the concentration for half-maximal inhibition (IC50) worked out at 5 nM.
With `CC1(C)[C@@H]2CC[C@@]1(C)[C@H](NC1=NS(=O)(=O)C3CCCCC3O1)C2` (single isomer, unassigned) [Example 14] the figure was 236 nM; with `CC12CCC(NC3=NS(=O)(=O)[C@H]4CCCC[C@H]4O3)(CC1)CC2` [Example 5, ((4aR,8aS)-1,1-Dioxo-4a,5,6,7,8,8a-hexahydro-1H-1lambda6-benzo[1,4,3]oxathiazin-3-yl)-(4-methyl-bicyclo[2.2.2]oct-1-yl)-amine], 8 nM.
With `CC12CCC(NC3=NS(=O)(=O)[C@@H]4CCCC[C@@H]4O3)(CC1)CC2` [Example 13, ((4aS,8aR)-1,1-Dioxo-4a,5,6,7,8,8a-hexahydro-1H-1lambda6-benzo[1,4,3]oxathiazin-3-yl)-(4-methyl-bicyclo[2.2.2]oct-1-yl)-amine], the IC50 came to 5 nM.
Under `CC1CC(NC2=NS(=O)(=O)C3CCCCC3O2)CC(C)(C)C1` (stereo not shown) [Example 23, (1,1-Dioxo-4a,5,6,7,8,8a-hexahydro-1H-1lambda6-benzo[1,4,3]oxathiazin-3-yl)-(3,3,5-trimethyl-cyclohexyl)-amine] stands 20 nM.
Under `CC(C)C(NC1=NS(=O)(=O)C2CCCCC2O1)c1cccs1` (stereo not shown) [Example 25, (1,1-Dioxo-4a,5,6,7,8,8a-hexahydro-1H-1lambda6-benzo[1,4,3]oxathiazin-3-yl)-(2-methyl-1-thiophen-2-yl-propyl)-amine] stands 121 nM; under `C[C@@H](NC1=NS(=O)(=O)C2CCCCC2O1)C1CCCCC1` (stereo partly drawn) [Example 29, ((R)-1-Cyclohexyl-ethyl)-(1,1-dioxo-4a,5,6,7,8,8a-hexahydro-1H-1lambda6-benzo[1,4,3]oxathiazin-3-yl)-amine], 275 nM; under `CC1(C)[C@@H]2CC[C@@]1(C)[C@@H](NC1=NS(=O)(=O)C3CCCCC3O1)C2` (stereo partly drawn) [Example 36, (1,1-Dioxo-4a,5,6,7,8,8a-hexahydro-1H-1lambda6-benzo[1,4,3]oxathiazin-3-yl)-((1R,2S,4R)-1,7,7-trimethyl-bicyclo[2.2.1]hept-2-yl)-amine], 59 nM.
With `CC1(C)[C@@H]2CC[C@@]1(C)[C@H](O)[C@H]2NC1=NS(=O)(=O)C2CCCCC2O1` (stereo partly drawn) [Example 38, (1R,2S,3S,4S)-3-(1,1-Dioxo-4a,5,6,7,8,8a-hexahydro-1H-1lambda6-benzo[1,4,3]oxathiazin-3-ylamino)-1,7,7-trimethyl-bicyclo[2.2.1]heptan-2-ol] the figure was 570 nM; with `O=S1(=O)N=C(NC(C2CC2)C2CC2)OC2CCCCC21` (stereo not shown) [Example 39, Dicyclopropylmethyl-(1,1-dioxo-4a,5,6,7,8,8a-hexahydro-1H-1lambda6-benzo[1,4,3]oxathiazin-3-yl)-amine], 440 nM.
As to `CC1(C)C2CCC1C(NC1=NS(=O)(=O)C3CCCCC3O1)C2O` (stereo not shown) [Example 41, 3-(1,1-Dioxo-4a,5,6,7,8,8a-hexahydro-1H-1lambda6-benzo[1,4,3]oxathiazin-3-ylamino)-7,7-dimethyl-bicyclo[2.2.1]heptan-2-ol], the IC50 was determined as 497 nM.
Consider `O=S1(=O)N=C(NCC2CCCCO2)OC2CCCCC21` (stereo not shown) [Example 47, (1,1-Dioxo-4a,5,6,7,8,8a-hexahydro-1H-1lambda6-benzo[1,4,3]oxathiazin-3-yl)-(tetrahydro-pyran-2-ylmethyl)-amine], for which the IC50 amounted to 165 nM.
With `O=S1(=O)N=C(NC2CCSc3ccccc32)OC2CCCCC21` (stereo not shown) [Example 48, (1,1-Dioxo-4a,5,6,7,8,8a-hexahydro-1H-1lambda6-benzo[1,4,3]oxathiazin-3-yl)-thiochroman-4-yl-amine] the figure was 93 nM; with `CC(C)[C@]12CC(NC3=NS(=O)(=O)C4CCCCC4O3)[C@H](C)[C@H]1C2` (stereo partly drawn) [Example 53, (1,1-Dioxo-4a,5,6,7,8,8a-hexahydro-1H-1lambda6-benzo[1,4,3]oxathiazin-3-yl)-((1S,4R,5R)-1-isopropyl-4-methyl-bicyclo[3.1.0]hex-3-yl)-amine], 54 nM.
Under `O=S1(=O)N=C(NC2CC[C@H]3CC[C@@H]2C3)OC2CCCCC21` (stereo partly drawn) [Example 54, (1R,5R)-Bicyclo[3.2.1]oct-2-yl-(1,1-dioxo-4a,5,6,7,8,8a-hexahydro-1H-1lambda6-benzo[1,4,3]oxathiazin-3-yl)-amine] stands 29 nM; under `CC(C)CC(CC(C)C)NC1=NS(=O)(=O)C2CCCCC2O1` (stereo not shown) [Example 55, (1,1-Dioxo-4a,5,6,7,8,8a-hexahydro-1H-1lambda6-benzo[1,4,3]oxathiazin-3-yl)-(1-isobutyl-3-methyl-butyl)-amine], 670 nM.
Under `C[C@@H]1[C@@H](NC2=NS(=O)(=O)C3CCCCC3O2)C[C@H]2C[C@@H]1C2(C)C` (stereo partly drawn) [Example 56, (1,1-Dioxo-4a,5,6,7,8,8a-hexahydro-1H-1lambda6-benzo[1,4,3]oxathiazin-3-yl)-((1S,2S,3S,5R)-2,6,6-trimethyl-bicyclo[3.1.1]hept-3-yl)-amine] stands 16 nM.
Consider `O=S1(=O)N=C(N[C@@H]2CCCC[C@H]2CO)O[C@H]2CCCC[C@H]21` [Example 59, [(1R,2R)-2-((4aS,8aR)-1,1-Dioxo-4a,5,6,7,8,8a-hexahydro-1H-1lambda6-benzo[1,4,3]oxathiazin-3-ylamino)-cyclohexyl]-methanol], for which the IC50 is 658 nM.
Under `O=S1(=O)N=C(N[C@@H]2C[C@H]3CC[C@@H]2C3)OC2CCCCC21` (stereo partly drawn) [Example 62, (1R,2R,4S)-Bicyclo[2.2.1]hept-2-yl-((5S,6R)-1,1-dioxo-4a,5,6,7,8,8a-hexahydro-1H-1lambda6-benzo[1,4,3]oxathiazin-3-yl)-amine] stands 43 nM.
Under `CC12CCC(NC3=NS(=O)(=O)C4CCCC4O3)(CC1)CC2` (stereo not shown) [Example 64, (1,1-Dioxo-1,4a,5,6,7,7a-hexahydro-1lambda6-cyclopenta[1,4,3]oxathiazin-3-yl)-(4-methyl-bicyclo[2.2.2]oct-1-yl)-amine] stands 38 nM; under `O=S1(=O)N=C(NN2CC3CCCC3C2)OC2CCCCC21` (stereo not shown) [Example 65, (1,1-Dioxo-4a,5,6,7,8,8a-hexahydro-1H-1lambda6-benzo[1,4,3]oxathiazin-3-yl)-(hexahydro-cyclopenta[c]pyrrol-2-yl)-amine], 308 nM; under `O=S1(=O)N=C(NN2CCCCCC2)OC2CCCCC21` (stereo not shown) [Example 66, Azepan-1-yl-(1,1-dioxo-4a,5,6,7,8,8a-hexahydro-1H-1lambda6-benzo[1,4,3]oxathiazin-3-yl)-amine], 148 nM.
Turning to `O=S1(=O)N=C(NC23CCC(CC2)CC3)OC2CCCC21` (stereo not shown) [Example 72, Bicyclo[2.2.2]oct-1-yl-(1,1-dioxo-1,4a,5,6,7,7a-hexahydro-1lambda6-cyclopenta[1,4,3]oxathiazin-3-yl)-amine], the IC50 was 74 nM.
Under `O=S1(=O)N=C(N[C@H]2CC[C@H](O)CC2)OC2CCCCC21` (stereo partly shown) [Example 81, 4-(1,1-Dioxo-4a,5,6,7,8,8a-hexahydro-1H-1lambda6-benzo[1,4,3]oxathiazin-3-ylamino)-cyclohexanol] stands 355 nM; under `CC12CCCCC1S(=O)(=O)N=C(NC1CCCCC1)O2` (stereo not shown) [Example 89, Cyclohexyl-(4a-methyl-1,1-dioxo-4a,5,6,7,8,8a-hexahydro-1H-1lambda6-benzo[1,4,3]oxathiazin-3-yl)-amine], 49 nM.

For the origin of these results see patent US8901114B2, “Oxathiazine derivatives substituted with carbocycles or heterocycles, method for producing same, drugs containing said compounds, and use thereof” (Sanofi, priority 2011, dated 2014).
